Assay results from article PMC11952493 (bioRxiv, 2025).
Where no end group is shown, it is not given here.

Target: T1, Recombinant Human FAPα (Homo sapiens, UniProt Q12884)
T1 sequence (Q12884 1-760): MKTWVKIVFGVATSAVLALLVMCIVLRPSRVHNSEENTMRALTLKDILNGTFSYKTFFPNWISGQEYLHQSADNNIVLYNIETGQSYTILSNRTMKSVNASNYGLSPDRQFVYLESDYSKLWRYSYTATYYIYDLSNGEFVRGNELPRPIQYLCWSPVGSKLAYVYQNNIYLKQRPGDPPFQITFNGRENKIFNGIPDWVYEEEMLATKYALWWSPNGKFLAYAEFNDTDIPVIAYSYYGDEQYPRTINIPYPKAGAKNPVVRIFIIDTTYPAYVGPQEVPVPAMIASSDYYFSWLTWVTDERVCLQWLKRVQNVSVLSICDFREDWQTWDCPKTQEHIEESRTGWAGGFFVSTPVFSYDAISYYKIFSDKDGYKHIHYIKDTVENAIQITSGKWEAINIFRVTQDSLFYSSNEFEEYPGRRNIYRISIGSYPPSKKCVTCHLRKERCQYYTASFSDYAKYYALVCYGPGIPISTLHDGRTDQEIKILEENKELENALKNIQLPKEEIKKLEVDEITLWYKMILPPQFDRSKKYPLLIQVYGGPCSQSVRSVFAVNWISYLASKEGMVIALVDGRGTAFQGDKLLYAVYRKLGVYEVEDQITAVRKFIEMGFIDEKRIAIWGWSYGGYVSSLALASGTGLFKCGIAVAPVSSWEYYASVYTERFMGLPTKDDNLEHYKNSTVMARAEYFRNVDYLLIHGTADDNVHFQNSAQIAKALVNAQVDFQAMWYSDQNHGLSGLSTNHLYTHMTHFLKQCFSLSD
Assay: Fluorogenic substrate cleavage assay with FAPα
Format: biochemical
Conditions: 200 μM substrate, 37°C; 10 nM FAPα, 2 nM DPP4, 6 nM DPP9, 3-6 nM PREP

| Sequence | selectivity for FAPα over DPP4, DPP9 and PREP (in words) |
| --- | --- |
| AACVSFQNLDCG (also: sidechain bridge or staple (positions not given here)) [FAP-33] | highest specificity |
| AACSFRINSLCG (also: sidechain bridge or staple (positions not given here)) [FAP-24] | highest specificity |
